From patent US4261978A, “Treatment and prophylaxis of swine dysentery” (Takeda Chemical Industries, Ltd., priority 1978, dated 1981)
Values after ≈ are worked out from the molar mass of the structure shown. Read-outs that look alike come from different tables or passages of the source.

What was measured:
[1] = test system: Treponema hyodysenteriae; assay: Minimum inhibitory concentration against Treponema hyodysenteriae (agar dilution); assay type: cell-based; conditions: 10^6 CFU/ml. loopful, 37° C., 2 days; for MIC: Brachyspira hyodysenteriae, 48 h
Description: (1)Strains: These strains belong to Treponema hyodysenteriae isolated fro
the bloody mucous faeces of dysenteric pigs; MK 1, MK 2 and MK 4 were
obtained in Kyushu District of Japan while OX 1 was obtained in Okinawa,
(2)Antimicrobial potency assay: Agar Dilution Method
(3) Inoculum size: a loopful of 10^6 CFU/ml.
(4)Cultural conditions: Gas Pak (BBL) method, 37° C., 2 days

[2] = Acute oral toxicity (LD50); assay type: in vivo, mouse; conditions: for LD50: mouse, oral
Description: (C) Carriomycin is extremely low in toxicity to animals.

[3] = test system: Treponema hyodysenteriae; assay: Therapeutic efficacy of medicated feed in pigs experimentally infected with swine dysentery; assay type: in vivo, pigs (SPF LW)
Description: A premix containing 10% of carriomycin monosodium salt crystals as diluted with finely milled soybean meal was added to a feedstuff and pigs were allowed to take the feed as libitum. The feed was the proprietary pig starter mentioned in Example 2 without added antibiotics. The pigs were SPF LW and used in groups of 4 animals (2 male and 2 female.)
The pigs were infected as follows. Thus, Treponema hyodysenteriae was anaerobically grown on a 5% horse blood agar plate and the resultant culture was homogenized and admixed with 3% mucin-phosphate buffer. The mixture was directly administered into the stomach of each SPF pig. From each of the pigs showing typical symptoms of swine dysentery, the colon content and mucous membrane were taken and diluted two-fold with 3% mucin-phosphate buffer to obtain a final infective material. An 80 ml. portion of this preparation was directly infused into the stomach of each test pig, which was then put on the unmedicated feed for the initial six days. Beginning with the 7th day, each pig was put on the feed medicated with one of predetermined concentrations of the test drug and was reared for a total of 28 days. Tests were performed for three groups of animals dosed with 0 ppm. 15 ppm. and 150 ppm., respectively, of carriomycin.

[4] = Absorption from the digestive tract and residue in the animal body; conditions: in words

CC[C@@]1([C@@H]2O[C@@H]([C@H]3O[C@@](O)(CO)[C@H](C)C[C@@H]3C)C[C@@H]2C)CC[C@H]([C@]2(C)CC[C@]3(C[C@H](O)[C@@H](C)[C@@H]([C@@H](C)[C@@H](OC)[C@H](C)C(=O)O)O3)O2)O1 [Monensin]
MIC ([1]; strain MK 1): 1 µg/mL (≈ 1.49 µM) | MIC ([1]; strain MK 2): 1 µg/mL (≈ 1.49 µM) | MIC ([1]; strain MK 4): 1 µg/mL (≈ 1.49 µM) | MIC ([1]; strain OX 1): 1 µg/mL (≈ 1.49 µM)

CCC(C(=O)C(C)C(O)C(C)CCc1ccc(C)c(O)c1C(=O)O)C1OC(CC)(C2CCC(O)(CC)C(C)O2)CC1C (stereo not drawn) [Lasalocid A]
LD50 ([2]; in vivo, read-out: LD50): 146 mg/kg | MIC ([1]; strain MK 1): 10 µg/mL (≈ 16.9 µM) | MIC ([1]; strain MK 2): 10 µg/mL (≈ 16.9 µM) | MIC ([1]; strain MK 4): 10 µg/mL (≈ 16.9 µM) | MIC ([1]; strain OX 1): 10 µg/mL (≈ 16.9 µM)

CC[C@@H](C(=O)[C@@H](C)[C@@H](O)[C@H](C)[C@@H]1O[C@@H]([C@@H](CC)C(=O)O)CC[C@@H]1C)[C@H]1O[C@]2(C=C[C@@H](O)[C@]3(CC[C@@](C)([C@H]4CC[C@](O)(CC)[C@H](C)O4)O3)O2)[C@H](C)C[C@@H]1C [Salinomycin, salinomycin]
LD50 ([2]; in vivo, read-out: LD50): 50 mg/kg | MIC ([1]; strain MK 1): 1 µg/mL (≈ 1.33 µM) | MIC ([1]; strain MK 2): 1 µg/mL (≈ 1.33 µM) | MIC ([1]; strain MK 4): 0.1 µg/mL (≈ 0.133 µM) | MIC ([1]; strain OX 1): 1 µg/mL (≈ 1.33 µM)

COC1CCC(OC2C(C)C(CC3CC(OC)C(C)C4(O3)OC(C)(C3CCC(C5CCC(C6OC(C)(O)C(C)CC6C)O5)O3)C(OC)C4C)OC(O)(C(C)C(=O)O)C2C)OC1C (stereo not drawn) [Carriomycin, carriomycin]
Mean body weight at end of test ([3]; group B, 15 ppm. in feed): 29.1 kg./head | Mean feed conversion ratio ([3]; group B, 15 ppm. in feed): 2.5 | Mean feed intake ([3]; group B, 15 ppm. in feed): 36.5 kg./head | Mean number of days with bloody mucous faeces ([3]; group B, 15 ppm. in feed): 0.5 days/head | Mean number of days with diarrhea ([3]; group B, 15 ppm. in feed): 3.0 days/head | Mean weight gain ([3]; group B, 15 ppm. in feed): 14.6 kg./head | Mean body weight at end of test ([3]; group C, 150 ppm. in feed): 31.7 kg./head | Mean feed conversion ratio ([3]; group C, 150 ppm. in feed): 2.3 | Mean feed intake ([3]; group C, 150 ppm. in feed): 37.3 kg./head | Mean number of days with bloody mucous faeces ([3]; group C, 150 ppm. in feed): 0.1 days/head | Mean number of days with diarrhea ([3]; group C, 150 ppm. in feed): 1.5 days/head | Mean weight gain ([3]; group C, 150 ppm. in feed): 16.2 kg./head | body weight gain ([3]; in words, from Table 2): considerable increases | feed conversion ratio, number of days with diarrhea and number of days with bloody mucous faeces ([3]; in words, from Table 2): considerable improvements | absorption from the digestive tract [4]: sparingly absorbed | residue in the animal body [4]: substantially no residue | toxicity to animals ([2]; in words): extremely low | LD50 [2]: about 2,000 mg./kg. | Minimum inhibitory concentration (MIC) ([1]; strain MK 1): 0.1 µg/mL (≈ 0.113 µM) | Minimum inhibitory concentration (MIC) ([1]; strain MK 2): 0.1 µg/mL (≈ 0.113 µM) | Minimum inhibitory concentration (MIC) ([1]; strain MK 4): 0.1 µg/mL (≈ 0.113 µM) | Minimum inhibitory concentration (MIC) ([1]; strain OX 1): 0.1 µg/mL (≈ 0.113 µM)
